Calls of active or inactive are those of the source. The rule behind the calls is not given here.
Columns and labels:
PC-3 = assay: Growth inhibition of human PC3 cells after 48 hrs by SRB assay; assay type: functional; conditions: PC-3, 48 h
DU-145 = assay: Growth inhibition of human DU145 cells after 48 hrs by SRB assay; assay type: functional; conditions: DU-145, 48 h
MCF7 [1] = assay: Growth inhibition of human MCF7 cells after 48 hrs by SRB assay; assay type: functional; conditions: MCF7, 48 h
[2] = Growth inhibition of human BT549 cells after 48 hrs by SRB assay; assay type: functional; conditions: BT-549, 48 h
T47D = assay: Growth inhibition of human T47D cells after 48 hrs by SRB assay; assay type: functional
MDA-MB-468 = assay: Growth inhibition of human MDA-MB-468 cells after 48 hrs by SRB assay; assay type: functional; conditions: MDA-MB-468, 48 h
Malme-3M = assay: Growth inhibition of human MALME-3M cells after 48 hrs by SRB assay; assay type: functional
SK-MEL-5 = assay: Growth inhibition of human SK-MEL-5 cells after 48 hrs by SRB assay; assay type: functional; conditions: SK-MEL-5, 48 h
MCF7 [3] = assay: Growth inhibition of human MCF7 cells assessed as cell viability at 4 uM after 24 hrs by MTT assay; assay type: functional, cell-based
MCF7 [4] = assay: Cell cycle arrest in human MCF7 cells assessed as accumulation at G0/G1 phase at 4 uM after 24 hrs by propidium iodide staining-based flow cytometry (reference value: 64.04%); assay type: functional
MCF7 [5] = assay: Cell cycle arrest in human MCF7 cells assessed as accumulation at G2/M phase at 4 uM after 24 hrs by propidium iodide staining-based flow cytometry (reference value: 15.79%); assay type: functional
MCF7 [6] = assay: Induction of cell cycle arrestin human MCF7 cells assessed as downregulation of cyclin D1 protein expression at 4 uM by Western blot analysis; assay type: functional, cell-based
MCF7 [7] = assay: Induction of cell cycle arrestin human MCF7 cells assessed as downregulation of CDK2 protein expression at 4 uM by Western blot analysis; assay type: functional, cell-based
MCF7 [8] = assay: Induction of cell cycle arrestin human MCF7 cells assessed as downregulation of cyclin E protein expression at 4 uM by Western blot analysis; assay type: functional, cell-based
MCF7 [9] = assay: Induction of apoptosis in human MCF7 cells assessed as upregulation of p27 protein expression at 4 uM by Western blot analysis relative to control; assay type: functional, cell-based
MCF7 [10] = assay: Induction of apoptosis in human MCF7 cells assessed as decrease in procaspase 9 level at 4 uM by Western blot analysis relative to control; assay type: functional, cell-based
HL-60(TB) = assay: Growth inhibition of human HL-60(TB) cells after 48 hrs by SRB assay; assay type: functional; conditions: HL-60, 48 h
K562 = assay: Growth inhibition of human K562 cells after 48 hrs by SRB assay; assay type: functional; conditions: K562, 48 h
[11] = Growth inhibition of human MOLT4 cells after 48 hrs by SRB assay; assay type: functional; conditions: MOLT-4, 48 h
SR = assay: Growth inhibition of human SR cells after 48 hrs by SRB assay; assay type: functional
RPMI-8226 = assay: Growth inhibition of human RPMI8226 cells after 48 hrs by SRB assay; assay type: functional; conditions: RPMI-8226, 48 h
[12] = Growth inhibition of human EKVX cells after 48 hrs by SRB assay; assay type: functional
HOP-62 = assay: Growth inhibition of human HOP62 cells after 48 hrs by SRB assay; assay type: functional; conditions: HOP-62, 48 h
NCI-H226 = assay: Growth inhibition of human NCI-H226 cells after 48 hrs by SRB assay; assay type: functional; conditions: NCI-H226, 48 h
NCI-H23 = assay: Growth inhibition of human NCI-H23 cells after 48 hrs by SRB assay; assay type: functional; conditions: NCI-H23, 48 h
NCI-H322M = assay: Growth inhibition of human NCI-H322M cells after 48 hrs by SRB assay; assay type: functional
NCI-H460 = assay: Growth inhibition of human NCI-H460 cells after 48 hrs by SRB assay; assay type: functional; conditions: NCI-H460, 48 h
NCI-H522 = assay: Growth inhibition of human NCI-H522 cells after 48 hrs by SRB assay; assay type: functional; conditions: NCI-H522, 48 h
COLO 205 = assay: Growth inhibition of human COLO205 cells after 48 hrs by SRB assay; assay type: functional; conditions: COLO 205, 48 h
[13] = Growth inhibition of human HCC2998 cells after 48 hrs by SRB assay; assay type: functional; conditions: HCC 2998, 48 h
[14] = Growth inhibition of human HCT15 cells after 48 hrs by SRB assay; assay type: functional; conditions: HCT-15, 48 h
HT-29 = assay: Growth inhibition of human HT-29 cells after 48 hrs by SRB assay; assay type: functional; conditions: HT-29, 48 h
KM12 = assay: Growth inhibition of human KM12 cells after 48 hrs by SRB assay; assay type: functional; conditions: KM12, 48 h
SF-268 = assay: Growth inhibition of human SF268 cells after 48 hrs by SRB assay; assay type: functional; conditions: SF-268, 48 h
[15] = Growth inhibition of human SF295 cells after 48 hrs by SRB assay; assay type: functional; conditions: SF-295, 48 h
[16] = Growth inhibition of human SF539 cells after 48 hrs by SRB assay; assay type: functional; conditions: SF-539, 48 h
SNB-19 = assay: Growth inhibition of human SNB19 cells after 48 hrs by SRB assay; assay type: functional; conditions: SNB-19, 48 h
U-251 = assay: Growth inhibition of human U251 cells after 48 hrs by SRB assay; assay type: functional; conditions: U-251, 48 h
IGROV-1 = assay: Growth inhibition of human IGROV1 cells after 48 hrs by SRB assay; assay type: functional; conditions: IGROV-1, 48 h
[17] = Growth inhibition of human OVCAR3 cells after 48 hrs by SRB assay; assay type: functional; conditions: OVCAR-3, 48 h
[18] = Growth inhibition of human OVCAR4 cells after 48 hrs by SRB assay; assay type: functional; conditions: OVCAR-4, 48 h
[19] = Growth inhibition of human OVCAR5 cells after 48 hrs by SRB assay; assay type: functional; conditions: OVCAR-5, 48 h
[20] = Growth inhibition of human OVCAR8 cells after 48 hrs by SRB assay; assay type: functional; conditions: OVCAR-8, 48 h
[21] = Growth inhibition of human NCI-ADR-RES cells after 48 hrs by SRB assay; assay type: functional
SK-OV-3 = assay: Growth inhibition of human SKOV3 cells after 48 hrs by SRB assay; assay type: functional; conditions: SK-OV-3, 48 h
786-0 = assay: Growth inhibition of human 786-0 cells after 48 hrs by SRB assay; assay type: functional; conditions: 786-0, 48 h
ACHN = assay: Growth inhibition of human ACHN cells after 48 hrs by SRB assay; assay type: functional
CAKI-1 = assay: Growth inhibition of human Caki1 cells after 48 hrs by SRB assay; assay type: functional; conditions: CAKI-1, 48 h
SN12C = assay: Growth inhibition of human SN12C cells after 48 hrs by SRB assay; assay type: functional
TK-10 = assay: Growth inhibition of human TK10 cells after 48 hrs by SRB assay; assay type: functional; conditions: TK-10, 48 h
[22] = Growth inhibition of human UO31 cells after 48 hrs by SRB assay; assay type: functional; conditions: UO-31, 48 h

COc1ccc(C(=O)/C=C/c2c(C(F)(F)F)nc3ccccn23)cc1OC
GI50 (PC-3): 2730 nM
GI50 (DU-145): 650 nM
GI50 (MCF7 [1]): 560 nM
GI50 [2]: 2590 nM
GI50 (T47D): 1430 nM
GI50 (MDA-MB-468): 1900 nM
GI50 (Malme-3M): 6690 nM
GI50 (SK-MEL-5): 1630 nM
inhibition (MCF7 [3]): Active
Activity (MCF7 [4]): 97.86%
Activity (MCF7 [5]): 0.31%
inhibition (MCF7 [6]): Active
inhibition (MCF7 [7]): Active
inhibition (MCF7 [8]): Active
Activity (MCF7 [9]): Active
inhibition (MCF7 [10]): Active
GI50 (HL-60(TB)): 1520 nM
GI50 (K562): 360 nM
GI50 [11]: 1030 nM
GI50 (SR): 440 nM
GI50 (RPMI-8226): 290 nM
GI50 [12]: 3740 nM
GI50 (HOP-62): 3010 nM
GI50 (NCI-H226): 4550 nM
GI50 (NCI-H23): 2370 nM
GI50 (NCI-H322M): 3150 nM
GI50 (NCI-H460): 680 nM
GI50 (NCI-H522): 5730 nM
GI50 (COLO 205): 1920 nM
GI50 [13]: 480 nM
GI50 [14]: 1130 nM
GI50 (HT-29): 1480 nM
GI50 (KM12): 570 nM
GI50 (SF-268): 1570 nM
GI50 [15]: 3150 nM
GI50 [16]: 1650 nM
GI50 (SNB-19): 1590 nM
GI50 (U-251): 1100 nM
GI50 (IGROV-1): 440 nM
GI50 [17]: 1980 nM
GI50 [18]: 2490 nM
GI50 [19]: 3790 nM
GI50 [20]: 1310 nM
GI50 [21]: 1570 nM
GI50 (SK-OV-3): 2490 nM
GI50 (786-0): 2870 nM
GI50 (ACHN): 2850 nM
GI50 (CAKI-1): 2500 nM
GI50 (SN12C): 1910 nM
GI50 (TK-10): 3780 nM
GI50 [22]: 1440 nM

From ChEMBL document CHEMBL3217491, “Design, synthesis and biological evaluation of imidazopyridine/pyrimidine-chalcone derivatives as potential anticancer agents” (2010)
